ChEMBL document CHEMBL4411307, “N,N'-diaryl-bishydrazones in a biphenyl platform: Broad spectrum antifungal agents” (Eur J Med Chem, 2019)
Values after ≈ are worked out from the molar mass of the structure shown. Active and inactive are the calls of the source. The rule behind the calls is not given here.

How the values were obtained:
[1] = Hemolytic activity in mouse RBC at 3.9 ug/ml after 1 hr relative to control; format: ADME, cell-based, Erythrocyte; settings: red blood cells (erythrocytes), read-out: Activity
[2] = Selectivity index, ratio of CC50 for human A549 cells to MIC for fluconazole/ITC-resistant Candida albicans ATCC 64124; format: toxicity; settings: read-out: Selectivity Index
A549 = assay: Cytotoxicity against human A549 cells after 24 hrs by resazurin based assay; format: cell-based; settings: a549, 24 h
[3] = Selectivity index, ratio of CC50 for human A549 cells to MIC for Aspergillus flavus ATCC MYA-3631; format: toxicity; settings: read-out: Selectivity Index
[4] = Selectivity index, ratio of compound concentration showing <20 to <30% hemolysis in mouse RBC to MIC for fluconazole/ITC-resistant Candida albicans ATCC MYA-1003; format: toxicity; settings: mouse red blood cells (RBC), read-out: Selectivity Index
Aspergillus flavus = assay: Antifungal activity against Aspergillus flavus ATCC MYA-3631 measured after 48 hrs by CLSI M38-A2 protocol based method; format: functional; settings: ATCC MYA-3631, 48 h
[5] = Selectivity index, ratio of compound concentration showing <20 to <30% hemolysis in mouse RBC to MIC for fluconazole/ITC-resistant Candida albicans ATCC 64124; format: toxicity; settings: red blood cells (erythrocytes), read-out: Selectivity Index
[6] = Selectivity index, ratio of compound concentration showing <20 to <30% hemolysis in mouse RBC to MIC for fluconazole/ITC-resistant Candida albicans ATCC 10231; format: toxicity; settings: red blood cells (erythrocytes), read-out: Selectivity Index
Candida parapsilosis = assay: Antifungal activity against Candida parapsilosis ATCC 22019 measured after 48 hrs by CLSI M27-A3 protocol based method; format: functional; settings: Lodderomyces parapsilosis, ATCC 22019, 48 h
[7] = Selectivity index, ratio of CC50 for human A549 cells to MIC for fluconazole/ITC-susceptible Candida albicans ATCC MYA-2310; format: toxicity; settings: read-out: Selectivity Index
[8] = Selectivity index, ratio of CC50 for human A549 cells to MIC for fluconazole/ITC-resistant Candida albicans ATCC MYA-1003; format: toxicity; settings: read-out: Selectivity Index
Candida albicans [9] = assay: Antifungal activity against fluconazole/ITC-resistant Candida albicans ATCC 64124 measured after 48 hrs by CLSI M27-A3 protocol based method; format: functional; settings: ATCC 64124, 48 h
Staphylococcus aureus = assay: Antibacterial activity against methicillin-resistant Staphylococcus aureus; format: functional, organism-based
Nakaseomyces glabratus = assay: Antifungal activity against Candida glabrata ATCC 2001 measured after 48 hrs by CLSI M27-A3 protocol based method; format: functional; settings: CBS 138, 48 h
[10] = Hemolytic activity in mouse RBC at 62.5 ug/ml after 1 hr relative to control; format: ADME, cell-based, Erythrocyte; settings: red blood cells (erythrocytes), read-out: Activity
[11] = Selectivity index, ratio of CC50 for human A549 cells to MIC for fluconazole/ITC-resistant Candida albicans ATCC 10231; format: toxicity; settings: read-out: Selectivity Index
Candida albicans [12] = assay: Antifungal activity against fluconazole/ITC-resistant Candida albicans ATCC MYA-1237 measured after 48 hrs by CLSI M27-A3 protocol based method; format: functional; settings: ATCC MYA-1237, 48 h
[13] = Selectivity index, ratio of compound concentration showing <20 to <30% hemolysis in mouse RBC to MIC for Candida krusei ATCC 6258; format: toxicity; settings: mouse red blood cells (RBC), read-out: Selectivity Index
[14] = Selectivity index, ratio of CC50 for human A549 cells to MIC for Aspergillus terreus ATCC MYA-3633; format: toxicity; settings: read-out: Selectivity Index
[15] = Selectivity index, ratio of CC50 for human A549 cells to MIC for Aspergillus nidulans ATCC 38163; format: toxicity; settings: read-out: Selectivity Index
[16] = Selectivity index, ratio of CC50 for human A549 cells to MIC for fluconazole/ITC-resistant Candida albicans ATCC MYA-1237; format: toxicity; settings: read-out: Selectivity Index
[17] = Hemolytic activity in mouse RBC at 1.95 ug/ml after 1 hr relative to control; format: ADME, cell-based, Erythrocyte; settings: red blood cells (erythrocytes), read-out: Activity
[18] = Selectivity index, ratio of compound concentration showing <20 to <30% hemolysis in mouse RBC to MIC for Aspergillus terreus ATCC MYA-3633; format: toxicity; settings: mouse red blood cells (RBC), read-out: Selectivity Index
[19] = Selectivity index, ratio of CC50 for human A549 cells to MIC for fluconazole/ITC-susceptible Candida albicans ATCC MYA-2876; format: toxicity; settings: read-out: Selectivity Index
Listeria monocytogenes = assay: Antibacterial activity against Listeria monocytogenes; format: functional, organism-based
Candida albicans [20] = assay: Antifungal activity against fluconazole/ITC-susceptible Candida albicans ATCC MYA-2310 measured after 48 hrs by CLSI M27-A3 protocol based method; format: functional; settings: ATCC MYA-2310, 48 h
Candida albicans [21] = assay: Antifungal activity against fluconazole/ITC-resistant Candida albicans ATCC 10231 measured after 48 hrs by CLSI M27-A3 protocol based method; format: functional; settings: ATCC 10231, 48 h
[22] = Selectivity index, ratio of compound concentration showing <20 to <30% hemolysis in mouse RBC to MIC for Candida parapsilosis ATCC 22019; format: toxicity; settings: mouse red blood cells (RBC), read-out: Selectivity Index
[23] = Selectivity index, ratio of CC50 for human A549 cells to MIC for Candida krusei ATCC 6258; format: toxicity; settings: read-out: Selectivity Index
[24] = Selectivity index, ratio of compound concentration showing <20 to <30% hemolysis in mouse RBC to MIC for fluconazole/ITC-resistant Candida albicans ATCC MYA-1237; format: toxicity; settings: mouse red blood cells (RBC), read-out: Selectivity Index
Enterococcus = assay: Antibacterial activity against vancomycin-resistant Enterococcus; format: functional, organism-based
[25] = Selectivity index, ratio of compound concentration showing <20 to <30% hemolysis in mouse RBC to MIC for fluconazole/ITC-susceptible Candida albicans ATCC MYA-2876; format: toxicity; settings: red blood cells (erythrocytes), read-out: Selectivity Index
Aspergillus terreus = assay: Antifungal activity against Aspergillus terreus ATCC MYA-3633 measured after 48 hrs by CLSI M38-A2 protocol based method; format: functional; settings: ATCC MYA-3633, 48 h
Pichia kudriavzevii = assay: Antifungal activity against Candida krusei ATCC 6258 measured after 48 hrs by CLSI M27-A3 protocol based method; format: functional; settings: ATCC 6258, 48 h
Candida albicans [26] = assay: Antifungal activity against fluconazole/ITC-resistant Candida albicans ATCC 90819 measured after 48 hrs by CLSI M27-A3 protocol based method; format: functional; settings: ATCC 90819, 48 h
[27] = target: Voltage-gated inwardly rectifying potassium channel KCNH2 (Homo sapiens, UniProt Q12809); assay: Inhibition of [3H]-dofetilide binding to human ERG expressed in HEK293 cell membranes measured after 1 hr by liquid scintillation counting method
Sequence of Voltage-gated inwardly rectifying potassium channel KCNH2 (Q12809 whole entry): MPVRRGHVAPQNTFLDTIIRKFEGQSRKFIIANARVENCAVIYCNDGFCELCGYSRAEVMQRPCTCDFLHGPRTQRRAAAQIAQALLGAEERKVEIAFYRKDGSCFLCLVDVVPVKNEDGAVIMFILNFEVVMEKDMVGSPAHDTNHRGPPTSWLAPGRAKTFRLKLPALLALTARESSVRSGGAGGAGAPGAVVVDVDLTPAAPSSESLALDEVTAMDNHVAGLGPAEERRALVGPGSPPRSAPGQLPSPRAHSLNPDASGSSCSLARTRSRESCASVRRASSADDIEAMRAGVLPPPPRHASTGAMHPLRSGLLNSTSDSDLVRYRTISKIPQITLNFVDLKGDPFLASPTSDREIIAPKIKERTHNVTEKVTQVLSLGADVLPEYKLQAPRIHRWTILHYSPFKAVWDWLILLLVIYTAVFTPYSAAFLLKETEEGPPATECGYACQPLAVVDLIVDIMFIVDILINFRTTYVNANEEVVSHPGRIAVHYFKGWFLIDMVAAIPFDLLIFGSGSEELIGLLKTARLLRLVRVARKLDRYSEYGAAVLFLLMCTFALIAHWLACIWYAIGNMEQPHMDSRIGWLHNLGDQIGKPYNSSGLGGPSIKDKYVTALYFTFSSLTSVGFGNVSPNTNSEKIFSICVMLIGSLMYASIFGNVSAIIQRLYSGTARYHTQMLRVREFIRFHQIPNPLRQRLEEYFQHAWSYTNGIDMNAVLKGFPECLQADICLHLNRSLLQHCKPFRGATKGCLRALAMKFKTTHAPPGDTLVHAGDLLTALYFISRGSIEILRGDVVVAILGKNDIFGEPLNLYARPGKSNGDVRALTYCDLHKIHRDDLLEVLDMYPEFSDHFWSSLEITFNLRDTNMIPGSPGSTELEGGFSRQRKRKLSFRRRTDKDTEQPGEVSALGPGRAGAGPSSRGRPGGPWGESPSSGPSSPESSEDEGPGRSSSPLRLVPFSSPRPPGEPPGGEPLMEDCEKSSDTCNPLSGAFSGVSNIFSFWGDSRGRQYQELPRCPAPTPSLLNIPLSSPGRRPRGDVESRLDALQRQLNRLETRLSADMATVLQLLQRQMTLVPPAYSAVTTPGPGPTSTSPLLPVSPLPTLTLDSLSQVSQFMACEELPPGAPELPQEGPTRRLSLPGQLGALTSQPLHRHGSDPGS

[28] = Selectivity index, ratio of compound concentration showing <20 to <30% hemolysis in mouse RBC to MIC for fluconazole/ITC-resistant Candida albicans ATCC 90819; format: toxicity; settings: red blood cells (erythrocytes), read-out: Selectivity Index
BEAS-2B = assay: Cytotoxicity against human BEAS2B cells after 24 hrs by resazurin based assay; format: cell-based
[29] = Hemolytic activity in mouse RBC at 7.8 ug/ml after 1 hr relative to control; format: ADME, cell-based, Erythrocyte; settings: red blood cells (erythrocytes), read-out: Activity
[30] = Selectivity index, ratio of compound concentration showing <20 to <30% hemolysis in mouse RBC to MIC for Candida glabrata ATCC 2001; format: toxicity; settings: mouse red blood cells (RBC), read-out: Selectivity Index
[31] = Selectivity index, ratio of compound concentration showing <20 to <30% hemolysis in mouse RBC to MIC for Aspergillus flavus ATCC MYA-3631; format: toxicity; settings: mouse red blood cells (RBC), read-out: Selectivity Index
[32] = Hemolytic activity in mouse RBC at 31.3 ug/ml after 1 hr relative to control; format: ADME, cell-based, Erythrocyte; settings: red blood cells (erythrocytes), read-out: Activity
[33] = Selectivity index, ratio of compound concentration showing <20 to <30% hemolysis in mouse RBC to MIC for fluconazole/ITC-susceptible Candida albicans ATCC MYA-2310; format: toxicity; settings: mouse red blood cells (RBC), read-out: Selectivity Index
[34] = Hemolytic activity in mouse RBC at […] after 1 hr relative to control; format: ADME, cell-based, Erythrocyte; settings: red blood cells (erythrocytes), read-out: Activity; also: tested at 0.48 µg/mL
[35] = Selectivity index, ratio of CC50 for human A549 cells to MIC for Candida glabrata ATCC 2001; format: toxicity; settings: read-out: Selectivity Index
Candida albicans [36] = assay: Antifungal activity against fluconazole/ITC-resistant Candida albicans ATCC MYA-1003 measured after 48 hrs by CLSI M27-A3 protocol based method; format: functional; settings: ATCC MYA-1003, 48 h
Aspergillus nidulans = assay: Antifungal activity against Aspergillus nidulans ATCC 38163 measured after 48 hrs by CLSI M38-A2 protocol based method; format: functional; settings: ATCC 38163, 48 h
[37] = Hemolytic activity in mouse RBC at […] ug/ml after 1 hr relative to control; format: ADME, cell-based, Erythrocyte; settings: red blood cells (erythrocytes), read-out: Activity
Candida albicans [38] = assay: Antifungal activity against fluconazole/ITC-susceptible Candida albicans ATCC MYA-2876 measured after 48 hrs by CLSI M27-A3 protocol based method; format: functional; settings: ATCC MYA-2876, 48 h
[39] = Selectivity index, ratio of CC50 for human A549 cells to MIC for Candida parapsilosis ATCC 22019; format: toxicity; settings: read-out: Selectivity Index
[40] = Selectivity index, ratio of compound concentration showing <20 to <30% hemolysis in mouse RBC to MIC for Aspergillus nidulans ATCC 38163; format: toxicity; settings: mouse red blood cells (RBC), read-out: Selectivity Index
[41] = Selectivity index, ratio of CC50 for human A549 cells to MIC for fluconazole/ITC-resistant Candida albicans ATCC 90819; format: toxicity; settings: read-out: Selectivity Index

## COc1ccc(N/N=C/c2ccc(-c3ccc(/C=N/Nc4ccc(OC)cc4)cc3)cc2)cc1
[1]
  hemolysis at 1 h, 3.9 ug/ml: 2.8%
[2]
  selectivity ratio: 8
A549
  CC50: > 31 µg/mL
[3]
  selectivity ratio: 1
[4]
  selectivity ratio: 1 to 32
Aspergillus flavus
  MIC: > 31.3 µg/mL
[5]
  selectivity ratio: 1 to 32
[6]
  selectivity ratio: 1 to 32
Candida parapsilosis
  MIC: 15.6 µg/mL (≈ 34.6 µM)
[7]
  selectivity ratio: 8
[8]
  selectivity ratio: 4
Candida albicans [9]
  MIC: 3.9 µg/mL (≈ 8.66 µM)
Staphylococcus aureus
  Activity: inactive
Nakaseomyces glabratus
  MIC: 7.8 µg/mL (≈ 17.3 µM)
[10]
  hemolysis at 1 h, 62.5 ug/ml: 22.7%
[11]
  selectivity ratio: 4
Candida albicans [12]
  MIC: 15.6 µg/mL (≈ 34.6 µM)
[13]
  selectivity ratio: 1 to 32
[14]
  selectivity ratio: 1
[15]
  selectivity ratio: 4
[16]
  selectivity ratio: 2
[17]
  hemolysis at 1 h, 1.95 ug/ml: 1.9%
[18]
  selectivity ratio: 1 to 32
[19]
  selectivity ratio: 4
Listeria monocytogenes
  Activity: inactive
Candida albicans [20]
  MIC: 3.9 µg/mL (≈ 8.66 µM)
Candida albicans [21]
  MIC: 7.8 µg/mL (≈ 17.3 µM)
[22]
  selectivity ratio: 1 to 32
[23]
  selectivity ratio: 4
[24]
  selectivity ratio: 1 to 32
Enterococcus
  Activity: inactive
[25]
  selectivity ratio: 1 to 32
Aspergillus terreus
  MIC: > 31.3 µg/mL
Pichia kudriavzevii
  MIC: 7.8 µg/mL (≈ 17.3 µM)
Candida albicans [26]
  MIC: 7.8 µg/mL (≈ 17.3 µM)
[27]
  IC50: > 30 µM
[28]
  selectivity ratio: 1 to 32
BEAS-2B
  CC50: 16.4 µg/mL (≈ 36.4 µM)
[29]
  hemolysis at 1 h, 7.8 ug/ml: 4.2%
[30]
  selectivity ratio: 1 to 32
[31]
  selectivity ratio: 1 to 32
[32]
  hemolysis at 1 h, 31.3 ug/ml: 12.6%
[33]
  selectivity ratio: 1 to 32
[34]
  hemolysis at 1 h, […]: 1.2%
[35]
  selectivity ratio: 4
Candida albicans [36]
  MIC: 7.8 µg/mL (≈ 17.3 µM)
Aspergillus nidulans
  MIC: 7.8 µg/mL (≈ 17.3 µM)
[37]; at 15.6 µg/mL
  hemolysis at 1 h, 15.6 ug/ml: 6.7%
[37]
  hemolysis at 1 h, 0.975 ug/ml: 1.6%
Candida albicans [38]
  MIC: 7.8 µg/mL (≈ 17.3 µM)
[39]
  selectivity ratio: 2
[40]
  selectivity ratio: 1 to 32
[41]
  selectivity ratio: 4
